Measured values as given in publication PMC10653881, “VirB, a key transcriptional regulator of Shigella virulence, requires a CTP ligand for its regulatory activities” (mBio, 2023).

Target: T1, VirB (VirB-His6) (Shigella flexneri, UniProt P0A247)
T1 construct: VirB with His6 tag, purified by Monserate Biotechnology Group by an earlier protocol; ParB superfamily protein encoded on the large virulence plasmid pINV; homodimer on DNA
Experiment: isothermal titration calorimetry
Type: binding
Conditions: 25 °C, pH 7.6, 25 mM HEPES, 100 mM NaCl, one set of sites

T1 sequence (P0A247 whole entry): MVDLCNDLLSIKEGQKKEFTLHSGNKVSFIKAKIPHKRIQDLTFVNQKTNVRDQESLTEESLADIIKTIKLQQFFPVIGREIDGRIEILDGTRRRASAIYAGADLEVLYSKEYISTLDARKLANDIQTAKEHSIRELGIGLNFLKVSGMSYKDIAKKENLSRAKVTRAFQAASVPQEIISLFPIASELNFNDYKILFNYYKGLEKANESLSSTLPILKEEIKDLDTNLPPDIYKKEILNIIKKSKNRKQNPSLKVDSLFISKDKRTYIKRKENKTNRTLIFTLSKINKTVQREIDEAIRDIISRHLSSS

SMILES | Kd (5 mM MgCl2, 45 µM VirB-His6, no DNA) | Kd (5 mM MgCl2, 90 µM VirB-His6 (not fully saturated after 13 injections), no DNA)
Nc1ccn([C@@H]2O[C@H](COP(=O)(O)OP(=O)(O)OP(=O)(O)O)[C@@H](O)[C@H]2O)c(=O)n1 [CTP] | 9.3 ± 0.4 µM | 
Nc1ccn([C@@H]2O[C@H](COP(=O)(O)OP(=O)(O)OP(O)(O)=S)[C@@H](O)[C@H]2O)c(=O)n1 [CTPγS] |  | 14.3 ± 0.5 µM
